Results reported in patent US20180360972A1, “THERAPEUTIC COMPOUNDS” (REGENTS OF THE UNIVERSITY OF MINNESOTA, priority 2017, published 2018).
pIC50: −log10 of the molar value. “Also recorded” adds a separate entry of the source. Like-named read-outs stand apart in the source and are kept apart here.

How the values were obtained:
wild type mice = assay: ICV administration, conventional cages, wild type mice; type: in vivo
Protocol: (§1) All experiments were performed in accordance with the Institutional Animal Care and Use Committee (IACUC) at the University of Minnesota. Female and male littermates with mixed background from C57BL/6J and 129/Sv inbred strains were 8 weeks old at the time of surgeries. Mice were individually housed after surgeries and for the remainder of the experiment. Mice were maintained on a 12 hr light/dark cycle (Lights off was at 11:59 AM) in a temperature controlled room (23-25° C.). In the nocturnal feeding paradigm, mice had free access to normal chow (Harlan Teklad 2018 Diet: 18.6% crude protein, 6.2% crude fat, 3.5% crude fiber, with energy density of 3.1 kcal/g). […] Mice had free access to tap water throughout all the experiments. The cannula placement validation studies and conventional cage studies were performed in standard mouse polycarbonate conventional cages provided by University of Minnesota's Research Animal Resources (RAR). Weekly cage changes were conducted by lab research staff.
(§2) Mice were anesthetize with a mixture of ketamine (100 mg/kg) and xylazine (5 mg/kg) and were positioned in a stereotaxic apparatus (David Kopf Instruments). A 26-gauge cannula (Cat# 81C315GS4SPC; PlasticsOne, Roanoke, Va.) was inserted in the lateral cerebral ventricle at the coordinates 1.0 mm lateral and 0.46 mm posterior to bregma and 2.3 mm ventral to the skull (Franklin, K. B. J. & Paxinos, G. The Mouse Brain in Stereotaxic Coordinates. (Academic Press, 1997)).
(§3) Each mouse was administered hPYY and saline on different days following a crossover design in the nocturnal feeding paradigm. In the nocturnal paradigm, compound is administered 2 hours prior to lights out with free access to food and water throughout the entire experiment. There was at least a 4 day washout period between administration to ensure that normal feeding patterns and body weight returned. Food intake and body weight were manually measured 2, 4, and 6 hours after hPYY or saline administration. A mouse with a validated cannula placement for the TSE cage experiments consumed at least 1.0 g more after hPYY administration compared to saline administration 4 hours post-administration.
(§4) As stated above, conventional cage experiments were performed in standard mouse polycarbonate conventional cages. […] All experiments followed a cross-over paradigm in which the mouse received saline and compound on different days with a washout period in between each treatment. Statistical analysis was performed using SPSS V23 software (IBM) using a multivariate general linear model followed by a Bonferroni's post hoc test. Results are presented as Mean±SEM. Statistically significant was considered p<0.05.

mMC4R = biological target: T1, mMC4R (Mus musculus, UniProt P56450); assay: 125I-NDP-MSH competitive binding; details: displacement of 125I-NDP-MSH; receptor subtype not printed at b283; read-out: binding affinity IC50
T1 construct: expressed in transfected cells
Protocol: NDP-MSH was radioiodinated with Na^125I utilizing the chloramine T procedure (26). […] HEK293 cells stably expressing wildtype mMC1R or mMC4R were maintained as described above. Transiently transfected HEK293 cells were used for binding experiments on the mMC3R. Transfection was performed in 10 cm plates using FuGene6 transfection reagent (15 μL/plate; Promega), Opti-Mem medium (1.7 mL/plate; Invitrogen), and mMC3R-Flag DNA (3.33 μg/plate) two days prior to binding experiment. One or two days preceding the competition experiments, cell were plated into 12-well tissue culture plates (Corning Life Sciences, Cat. # 353043) and grown to 90-100% confluency. On the day of the assay, media was removed gently. The cells were treated with a freshly diluted aliquot of non-labeled compound at the in well concentration being tested (ranging from 10^−12 to 10^−4 M as appropriate) in assay buffer (DMEM and 0.1% BSA) and a constant amount of ^1251-NDP-MSH (100,000 cpm/well) and were incubated at 37° C. for one hour. […] The radioactivity was quantified on WIZARD^2 Automatic Gamma Counter (PerkinElmer). […] The non-specific values used for calculations was radioactivity of the 10^−6 M unlabeled NDP-MSH. Data was analyzed by a nonlinear regression method using the PRISM program (v4.0; GraphPad Inc.) to generate and calculate dose-response curves and IC50 values.

male wild type mice = type: in vivo; details: for energy expenditure vs saline / food intake vs saline / respiratory exchange ratio (RER) vs saline / water intake vs saline: 5 nmols CJL-5-58 or 5 nmols each CJL-1-14 and CJL-1-80
Protocol: as §1, §2, §3, §4

[1] = fasting-refeeding, time after administration
[2] = nocturnal free-feeding paradigm, 5.0 nmol ICV

T1 sequence (P56450 whole entry): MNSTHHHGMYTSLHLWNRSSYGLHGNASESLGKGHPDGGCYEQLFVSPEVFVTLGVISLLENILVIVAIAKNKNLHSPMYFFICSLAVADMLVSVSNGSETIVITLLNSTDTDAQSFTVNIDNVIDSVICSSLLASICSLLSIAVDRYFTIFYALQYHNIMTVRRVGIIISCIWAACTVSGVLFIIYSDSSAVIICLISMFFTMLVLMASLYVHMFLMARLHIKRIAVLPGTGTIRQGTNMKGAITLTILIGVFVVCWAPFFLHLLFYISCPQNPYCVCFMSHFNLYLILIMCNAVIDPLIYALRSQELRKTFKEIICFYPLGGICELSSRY

CC(=O)N[C@@H](Cc1cnc[nH]1)C(=O)N[C@H](Cc1ccccc1)C(=O)N[C@@H](CCCNC(=N)N)C(=O)N[C@@H](Cc1c[nH]c2ccccc12)C(=O)NCCCOCCOCCOCCCNC(=O)COCC(=O)N[C@@H](Cc1cnc[nH]1)C(=O)N[C@H](Cc1ccc2ccccc2c1)C(=O)N[C@@H](CCCNC(=N)N)C(=O)N[C@@H](Cc1c[nH]c2ccccc12)C(N)=O [CJL-5-58, Ac-His-DPhe-Arg-Trp-(PEDG20)-His-DNal(2′)-Arg-Trp-NH2] was tested, and the adverse effects (wild type mice; ICV 2.5 nmols and 5.0 nmols, conventional cages) was “no signs of adverse effects”, the “change in body weight vs saline, female mice” value (wild type mice; fasting-refeeding) was “Only the 2 hour time point was significant” and the “change in body weight vs saline, male mice” value (wild type mice; fasting-refeeding) was “significant difference was observed in the change in weight of the male mice after compound administration at time points 2, 4, 6, 8, and 24 hours”. For the same molecule, the food intake (wild type mice; fasting-refeeding after 22 hour fast, ICV dose response) was “dose dependent decrease in food intake; also recorded: reduce food intake”, the “food intake vs saline, female mice (time points of significant decrease)” value (wild type mice; [1]) was 2 and 4 hours and the “food intake vs saline, male mice” value (wild type mice; [1]) was “Significant decreased food intake was observed at 2, 4, 6, and 8 hours; also recorded: Significant decreases in food intake were observed at 2, 4, 6, and 8 hours”. For the same molecule, the “body weight vs saline” value (wild type mice; [2]) was “no statistically significant effect”, the “food intake vs saline” value (wild type mice; [2]) was “no statistically significant effect” and the pIC50 (mMC4R) was 7.85. The “RER, CJL-5-58 vs co-administration of CJL-1-14 and CJL-1-80” value (male wild type mice; fasting paradigm) was “significant differences in RER at the 2, 3, 6, and 7 hour time points”, the activity vs saline (male wild type mice; fasting paradigm) was “no significant differences were observed in activity” and the “energy expenditure, CJL-5-58 vs co-administration of CJL-1-14 and CJL-1-80” value (male wild type mice; fasting paradigm) was “significantly higher for CJL-5-58 at the 13 and 17 hour time points”. The “food intake, CJL-5-58 vs co-administration of CJL-1-14 and CJL-1-80” value (male wild type mice; fasting paradigm) was “significant differences in the food intake at 2 and 4 hour time point”, the “number of mice that died” value (male wild type mice; fasting paradigm) was “one” and the “energy expenditure reached after treatment” value (male wild type mice; fasting paradigm, 5 nmol dose, baseline c.a. 12) was 17 to 19 kcal/h/kg. For the same molecule, the “energy expenditure vs saline” value (male wild type mice; fasting paradigm) was “significantly lower for the first 3 hours post-treatment; also recorded: increased energy expenditure is observed 15, 17, and 21 hours after compound administration”, the “food intake vs saline” value (male wild type mice; fasting paradigm) was “decrease in food intake up to 12 hours after administration” and the “respiratory exchange ratio (RER) vs saline” value (male wild type mice; fasting paradigm) was “significantly lower RER was observed for the first 9 hours and at 17 hours”. For the same molecule, the “water intake vs saline” value (male wild type mice; fasting paradigm) was “decrease in water intake was observed with 5 nmols of CJL-5-58 at time points 4, 6, 8, 10, and 12 hours”, the “number of adverse reactions” value (male wild type mice; fasting paradigm, within 30 minutes of injection) was “four” and the “time to recovery from adverse reactions” value (male wild type mice; mice experiencing adverse reactions) was less than 1 h. For the same molecule, the activity vs saline (male wild type mice; nocturnal paradigm) was “increase in activity was observed during the first 5 hours after administration”, the “any parameter, CJL-5-58 vs co-administration of CJL-1-14 and CJL-1-80” value (male wild type mice; nocturnal paradigm) was “no significant differences were observed for any parameter” and the “number of adverse reactions” value (male wild type mice; nocturnal paradigm) was 2. For the same molecule, the “number of mice that died” value (male wild type mice; nocturnal paradigm) was “one”, the “energy expenditure vs saline” value (male wild type mice; nocturnal paradigm) was “increase in energy expenditure was observed 5, 13, 15, and 16 hours after treatment” and the “food intake vs saline” value (male wild type mice; nocturnal paradigm) was “no significant effect was observed”. The “respiratory exchange ratio (RER) vs saline” value (male wild type mice; nocturnal paradigm) was “significantly lowered RER values only until 2 hours after administration” and the “water intake vs saline” value (male wild type mice; nocturnal paradigm) was “no difference in water intake was observed”.
